Assay results as given in ChEMBL document CHEMBL4665654, “Design, synthesis and evaluation of antiproliferative activity of fluorinated betulinic acid” (Bioorg Med Chem, 2019).
pIC50: −log10 of the molar value. Activity calls are given as the source filed them. The calls are words filed in the database; no cut-off is given here.

Columns and labels:
[1] = biological target: DNA topoisomerase 2-alpha (Homo sapiens) (UniProt P11388); assay: Inhibition of recombinant human topoisomerase-2alpha assessed as decrease in relaxation/nicking of kinetoplast DNA using kDNA as substrate at 100 uM after 15 mins by ethidium bromide staining based agarose gel electrophoresis analysis
[2] = system: A549; assay: Antiproliferative activity against human A549 cells assessed as cell growth inhibition after 72 hrs by sulforhodamine B assay; assay type: functional, cell-based; details: A549, 72 h
[3] = system: MDA-MB-231; assay: Antiproliferative activity against human MDA-MB-231 cells assessed as cell growth inhibition after 72 hrs by sulforhodamine B assay; assay type: functional, cell-based; details: MDA-MB-231, 72 h
[4] = system: KB; assay: Antiproliferative activity against human KB cells assessed as cell growth inhibition after 72 hrs by sulforhodamine B assay; assay type: functional, cell-based
[5] = Antiproliferative activity against human KB-VIN cells assessed as cell growth inhibition after 72 hrs by sulforhodamine B assay; assay type: functional, cell-based; details: KBVIN
[6] = system: MCF7; assay: Antiproliferative activity against human MCF7 cells assessed as cell growth inhibition after 72 hrs by sulforhodamine B assay; assay type: functional, cell-based; details: MCF7, 72 h

DNA topoisomerase 2-alpha (Homo sapiens), sequence (P11388 whole entry): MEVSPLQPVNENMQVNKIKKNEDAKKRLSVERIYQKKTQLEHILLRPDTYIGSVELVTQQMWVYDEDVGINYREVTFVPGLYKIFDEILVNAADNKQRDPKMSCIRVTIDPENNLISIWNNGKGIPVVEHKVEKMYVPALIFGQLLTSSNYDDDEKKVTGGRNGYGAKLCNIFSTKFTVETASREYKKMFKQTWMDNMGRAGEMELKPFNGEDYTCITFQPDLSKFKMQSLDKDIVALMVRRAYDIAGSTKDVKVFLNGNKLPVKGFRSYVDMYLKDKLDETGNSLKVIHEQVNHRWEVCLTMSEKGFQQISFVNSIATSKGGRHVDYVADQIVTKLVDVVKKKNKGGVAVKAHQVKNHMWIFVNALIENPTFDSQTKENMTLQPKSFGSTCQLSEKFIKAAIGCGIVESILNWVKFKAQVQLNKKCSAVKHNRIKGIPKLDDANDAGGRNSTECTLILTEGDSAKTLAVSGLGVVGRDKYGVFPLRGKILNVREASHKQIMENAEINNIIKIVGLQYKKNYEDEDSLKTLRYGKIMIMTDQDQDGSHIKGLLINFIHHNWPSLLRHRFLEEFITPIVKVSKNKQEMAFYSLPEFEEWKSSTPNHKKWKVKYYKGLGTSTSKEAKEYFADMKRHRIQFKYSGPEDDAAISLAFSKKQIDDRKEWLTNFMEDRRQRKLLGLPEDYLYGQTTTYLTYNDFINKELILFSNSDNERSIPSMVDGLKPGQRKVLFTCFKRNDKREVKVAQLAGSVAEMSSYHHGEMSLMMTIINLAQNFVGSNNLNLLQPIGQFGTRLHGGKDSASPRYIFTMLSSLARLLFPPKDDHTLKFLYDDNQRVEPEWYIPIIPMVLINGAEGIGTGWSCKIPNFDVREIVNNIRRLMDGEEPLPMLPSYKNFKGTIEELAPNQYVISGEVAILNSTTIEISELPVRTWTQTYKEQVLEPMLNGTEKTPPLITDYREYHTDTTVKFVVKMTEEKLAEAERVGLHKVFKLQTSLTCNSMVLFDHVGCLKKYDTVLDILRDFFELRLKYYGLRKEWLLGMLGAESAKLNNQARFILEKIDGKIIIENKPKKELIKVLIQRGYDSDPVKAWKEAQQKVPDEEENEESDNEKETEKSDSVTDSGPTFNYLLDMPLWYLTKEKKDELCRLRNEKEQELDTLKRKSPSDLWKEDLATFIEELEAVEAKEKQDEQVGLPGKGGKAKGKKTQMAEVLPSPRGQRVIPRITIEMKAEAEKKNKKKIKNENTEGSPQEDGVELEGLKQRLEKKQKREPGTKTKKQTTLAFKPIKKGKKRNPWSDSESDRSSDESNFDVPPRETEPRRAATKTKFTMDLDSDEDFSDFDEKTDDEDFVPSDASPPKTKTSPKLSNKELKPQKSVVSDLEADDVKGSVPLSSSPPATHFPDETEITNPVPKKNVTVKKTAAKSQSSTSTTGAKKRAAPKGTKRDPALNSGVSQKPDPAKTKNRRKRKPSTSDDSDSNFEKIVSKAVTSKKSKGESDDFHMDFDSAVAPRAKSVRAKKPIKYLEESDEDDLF

SMILES | pIC50 [2] | pIC50 [3] | pIC50 [4] | pIC50 [6] | inhibition [1] | pIC50 [5]
COc1cc([C@@H]2c3cc4c(cc3[C@@H](O[C@@H]3O[C@@H]5CO[C@@H](C)O[C@H]5[C@H](O)[C@H]3O)[C@H]3COC(=O)[C@H]23)OCO4)cc(OC)c1O | – | – | – | – | Active | –
C=C(C)[C@@H]1CC[C@]2(C(=O)OCc3ccc(Cl)cc3)CC[C@]3(C)[C@H](CC[C@@H]4[C@@]5(C)C[C@H](F)C(=O)C(C)(C)[C@@H]5CC[C@]43C)[C@@H]12 | < 4.40 | < 4.40 | < 4.40 | < 4.40 | – | < 4.40
C=C(C)[C@@H]1CC[C@]2(C(=O)OCc3ccc(Cl)cc3)CC[C@]3(C)[C@H](CC[C@@H]4[C@@]5(C)CCC(=O)C(C)(C)[C@@H]5CC[C@]43C)[C@@H]12 | < 4.40 | < 4.40 | < 4.40 | < 4.40 | – | < 4.40
C=C(C)[C@@H]1CC[C@]2(C(=O)OCc3ccc(Cl)cc3)CC[C@]3(C)[C@H](CC[C@@H]4[C@@]5(C)CC[C@@](O)(C(F)(F)F)C(C)(C)[C@@H]5CC[C@]43C)[C@@H]12 | < 4.40 | < 4.40 | < 4.40 | < 4.40 | – | < 4.40

More lines, main results first:

pIC50 [2] | pIC50 [3] | pIC50 [4] | pIC50 [6] | SMILES | inhibition [1] | pIC50 [5]
5.27 | < 5.00 | 5.23 | 5.11 | C=C(C)[C@@H]1CC[C@]2(C(=O)O)CC[C@]3(C)[C@H](CC[C@@H]4[C@@]5(C)CC[C@@](O)(C(F)(F)F)C(C)(C)[C@@H]5CC[C@]43C)[C@@H]12 | – | 5.22
5.25 | 5.05 | 5.17 | 4.82 | C=C(C)[C@@H]1CC[C@]2(C(=O)O)CC[C@]3(C)[C@H](CC[C@@H]4[C@@]5(C)C[C@@H](F)[C@H](O)C(C)(C)[C@@H]5CC[C@]43C)[C@@H]12 | – | 5.17
< 5.00 | < 5.00 | < 5.00 | < 5.00 | C=C(C)[C@@H]1CC[C@]2(C(=O)OC)CC[C@]3(C)[C@H](CC[C@@H]4[C@@]5(C)CC(F)C(=O)C(C)(C)[C@@H]5CC[C@]43C)[C@@H]12 (stereo partly specified) | – | < 5.00
< 5.00 | < 5.00 | < 5.00 | < 5.00 | C=C(C)[C@@H]1CC[C@]2(C(=O)OC)CC[C@]3(C)[C@H](CC[C@@H]4[C@@]5(C)CC[C@@](O)(C(F)(F)F)C(C)(C)[C@@H]5CC[C@]43C)[C@@H]12 | – | < 5.00
